Assays:
Myzus persicae [1] = test: Myzus persicae test (cabbage leaves sprayed); type: in vivo; conditions: single active compound
[2] = tested on: Spodoptera frugiperda larvae; test: Spodoptera frugiperda larvae test (spray); type: in vivo; conditions: single active compound
Aphis gossypii = Aphis gossypii test (cotton leaves dipped); type: in vivo; conditions: single active compound
Tetranychus urticae = test: Tetranychus test (OP-resistant/spray treatment); type: in vivo; conditions: single active compound
Procedure: Disks of bean leaves (Phaseolus vulgaris) which are infested by all stages of the greenhouse red spider mite (Tetranychus urticae) are sprayed with an active compound preparation of the desired concentration.
After the desired period of time, the activity in % is determined.

[3] = tested on: Phaedon cochleariae larvae; test: Phaedon cochleariae larvae test (Example G); conditions: 0.8 ppm, single active compound
Myzus persicae [4] = test: Myzus persicae test (cabbage leaves dipped); type: in vivo; conditions: single active compound
[5] = tested on: Phaedon cochleariae larvae; test: Phaedon cochleariae larvae test (Example D, spray); type: in vivo; conditions: single active compound

CC(C)c1cc(Oc2ccccc2)cc(C(C)C)c1NC(=S)NC(C)(C)C [diafenthiuron]
Kill in % after 6d (Myzus persicae [1]; 4 g/ha): 60% | Kill in % after 2d ([2]; 100 g/ha): 50%

milbemectin
Kill in % after 1d (Myzus persicae [1]; 0.8 g/ha): 0%

spinosad
Kill in % after 6d (Aphis gossypii; 100 ppm): 20% | Kill in % after 2d (Tetranychus urticae; 4 g/ha): 10% | Kill in % after 6d [3]: 20%

CCOC(=O)OC1=C(c2cc(C)ccc2C)C(=O)N[C@]12CC[C@@H](OC)CC2 [compound (I-2)]
Kill in % after 6d (Aphis gossypii; 0.8 ppm): 0% | Kill in % after 6d (Myzus persicae [1]; 0.8 g/ha): 50% | Kill in % after 1d (Myzus persicae [1]; 20 g/ha): 0% | Kill in % after 6d (Myzus persicae [4]; 0.8 ppm): 10% | Kill in % after 6d ([5]; 4 g/ha): 0% | Kill in % after 2d ([5]; 20 g/ha): 0% | Kill in % after 6d ([5]; 20 g/ha): 0% | Kill in % after 2d ([2]; 20 g/ha): 17% | Kill in % after 2d ([2]; 100 g/ha): 83% | Kill in % after 2d (Tetranychus urticae; 0.8 g/ha): 20% | Kill in % after 2d (Tetranychus urticae; 20 g/ha): 10%

CO[C@H]1CC[C@]2(CC1)NC(=O)C(c1cc(C)ccc1C)=C2O [compound (I-1)]
Kill in % after 6d (Aphis gossypii; 100 ppm): 70% | Kill in % after 6d (Myzus persicae [4]; 4 ppm): 5% | Kill in % after 6d [3]: 0%

CCOCn1c(-c2ccc(Cl)cc2)c(C#N)c(Br)c1C(F)(F)F [chlorfenapyr]
Kill in % after 2d ([5]; 4 g/ha): 0%

abamectin
Kill in % after 6d (Aphis gossypii; 0.8 ppm): 45% | Kill in % after 6d (Myzus persicae [4]; 0.8 ppm): 10% | Kill in % after 6d (Myzus persicae [4]; 4 ppm): 65%

CCc1nn(C)c(C(=O)NCc2ccc(C(C)(C)C)cc2)c1Cl [tebufenpyrad]
Kill in % after 6d ([5]; 4 g/ha): 0%

Cc1nn(C)c(Oc2ccccc2)c1C=NOCc1ccc(C(=O)OC(C)(C)C)cc1 [fenpyroximate]
Kill in % after 1d (Myzus persicae [1]; 20 g/ha): 20% | Kill in % after 6d ([5]; 20 g/ha): 33% | Kill in % after 2d ([2]; 100 g/ha): 50%

CC(C)(C)c1ccc(CSc2cnn(C(C)(C)C)c(=O)c2Cl)cc1 [pyridaben]
Kill in % after 6d ([5]; 4 g/ha): 33% | Kill in % after 2d (Tetranychus urticae; 0.8 g/ha): 0%

CCOC(=O)OC1=C(c2cc(C)ccc2C)C(=O)NC12CCC(OC)CC2 (centres unmarked) [compound (I-2-a)]
Kill in % after 6d (Aphis gossypii; 0.8 ppm): 0% | Kill in % after 6d (Myzus persicae [1]; 0.8 g/ha): 50% | Kill in % after 1d (Myzus persicae [1]; 20 g/ha): 0% | Kill in % after 6d (Myzus persicae [4]; 0.8 ppm): 0% | Kill in % after 6d ([5]; 4 g/ha): 0% | Kill in % after 2d ([5]; 20 g/ha): 0% | Kill in % after 6d ([5]; 20 g/ha): 0% | Kill in % after 2d ([2]; 20 g/ha): 17% | Kill in % after 2d ([2]; 100 g/ha): 83% | Kill in % after 2d (Tetranychus urticae; 0.8 g/ha): 0% | Kill in % after 2d (Tetranychus urticae; 20 g/ha): 0%

COC1CCC2(CC1)NC(=O)C(c1cc(C)ccc1C)=C2O (centres unmarked) [compound (I-1-a)]
Kill in % after 6d (Aphis gossypii; 100 ppm): 50% | Kill in % after 6d (Myzus persicae [4]; 4 ppm): 20% | Kill in % after 6d [3]: 0%

From patent US20100204167A1, “ACTIVE COMPOUND COMBINATIONS HAVING INSECTICIDAL AND ACARICIDAL PROPERTIES” (priority 2006, published 2010)
